Test results reported in the CheMixHub ionic liquid set.

Experiment: xn = mol fraction of the nth substance listed
Conditions: for electrical conductivity: 101 kPa; for viscosity: 100 kPa

CCCCCCCCCCCCCC[n+]1ccccc1.O=C([O-])C(O)c1ccccc1 + C[C@H](N)C(=O)O + O
electrical conductivity [S/m]
Conditions | 293.15 K | 298.15 K | 303.15 K | 308.15 K | 313.15 K
x1 = 5.26e-06, x2 = 0.001799 | 0.00177 | 0.00202 | 0.00228 | 0.00255 | 0.00285
x1 = 6.85e-06, x2 = 0 | 0.00248 | 0.00278 | 0.00309 | 0.0034 | 0.0037
x1 = 7.23e-06, x2 = 0.0009002 | 0.00232 | 0.00263 | 0.00296 | 0.00329 | 0.0036
x1 = 1.107e-05, x2 = 0.001799 | 0.00339 | 0.00385 | 0.0043 | 0.00479 | 0.0053
x1 = 1.32e-05, x2 = 0.0009002 | 0.00408 | 0.00462 | 0.00517 | 0.0057 | 0.0063
x1 = 1.424e-05, x2 = 0 | 0.00472 | 0.00529 | 0.00587 | 0.0065 | 0.0071
x1 = 1.688e-05, x2 = 0.001799 | 0.00492 | 0.00558 | 0.00625 | 0.007 | 0.0077
x1 = 1.79e-05, x2 = 0.0009002 | 0.00545 | 0.00618 | 0.0069 | 0.0077 | 0.0084
x1 = 2.126e-05, x2 = 0 | 0.00671 | 0.0076 | 0.0084 | 0.0093 | 0.0101
x1 = 2.178e-05, x2 = 0.001799 | 0.00627 | 0.00713 | 0.008 | 0.0088 | 0.0098
x1 = 2.206e-05, x2 = 0.0009002 | 0.0066 | 0.0075 | 0.0084 | 0.0093 | 0.0102
x1 = 2.64e-05, x2 = 0.0009002 | 0.00784 | 0.0089 | 0.0099 | 0.011 | 0.0121
x1 = 2.686e-05, x2 = 0.001799 | 0.00759 | 0.0086 | 0.0097 | 0.0107 | 0.0118
x1 = 2.811e-05, x2 = 0 | 0.0086 | 0.0097 | 0.0108 | 0.0122 | 0.0131
x1 = 3.092e-05, x2 = 0.0009002 | 0.0091 | 0.0103 | 0.0115 | 0.0128 | 0.014
x1 = 3.158e-05, x2 = 0.001799 | 0.0088 | 0.01 | 0.0112 | 0.0124 | 0.0137
x1 = 3.46e-05, x2 = 0 | 0.0103 | 0.0116 | 0.0129 | 0.0145 | 0.0157
x1 = 3.653e-05, x2 = 0.0009002 | 0.0105 | 0.0119 | 0.0133 | 0.0148 | 0.0163
x1 = 3.702e-05, x2 = 0.001799 | 0.0101 | 0.0114 | 0.0128 | 0.0143 | 0.0158
x1 = 4.108e-05, x2 = 0 | 0.0117 | 0.0131 | 0.0146 | 0.0161 | 0.0179
x1 = 4.376e-05, x2 = 0.0009001 | 0.0119 | 0.0135 | 0.015 | 0.0168 | 0.0186
x1 = 4.392e-05, x2 = 0.001799 | 0.0113 | 0.0128 | 0.0143 | 0.016 | 0.0178
x1 = 4.811e-05, x2 = 0 | 0.0129 | 0.0144 | 0.0161 | 0.0179 | 0.0198
x1 = 5.045e-05, x2 = 0.0009001 | 0.0129 | 0.0146 | 0.0163 | 0.0184 | 0.0203
x1 = 5.136e-05, x2 = 0.001799 | 0.0124 | 0.0139 | 0.0156 | 0.0175 | 0.0195
x1 = 5.388e-05, x2 = 0 | 0.0137 | 0.0154 | 0.0172 | 0.0191 | 0.0211
x1 = 5.768e-05, x2 = 0.0009001 | 0.014 | 0.0158 | 0.0177 | 0.0198 | 0.022
x1 = 5.861e-05, x2 = 0.001799 | 0.0134 | 0.0151 | 0.0169 | 0.019 | 0.0211
x1 = 5.982e-05, x2 = 0 | 0.0145 | 0.0163 | 0.0182 | 0.0202 | 0.0224
x1 = 6.383e-05, x2 = 0.0009001 | 0.0148 | 0.0168 | 0.0188 | 0.021 | 0.0233
x1 = 6.559e-05, x2 = 0 | 0.0153 | 0.0172 | 0.0192 | 0.0213 | 0.0236
x1 = 6.569e-05, x2 = 0.001799 | 0.0143 | 0.0161 | 0.0181 | 0.0201 | 0.0224
x1 = 6.998e-05, x2 = 0.0009001 | 0.0157 | 0.0177 | 0.0198 | 0.0222 | 0.0246
x1 = 7.081e-05, x2 = 0 | 0.016 | 0.018 | 0.02 | 0.0223 | 0.0246
x1 = 7.222e-05, x2 = 0.001799 | 0.0151 | 0.0171 | 0.0192 | 0.0214 | 0.0236
x1 = 7.595e-05, x2 = 0.0009001 | 0.0165 | 0.0187 | 0.0209 | 0.0234 | 0.026
x1 = 7.604e-05, x2 = 0 | 0.0167 | 0.0187 | 0.0209 | 0.0232 | 0.0258
x1 = 7.839e-05, x2 = 0.001799 | 0.0159 | 0.018 | 0.0201 | 0.0225 | 0.0251
x1 = 8.072e-05, x2 = 0 | 0.0173 | 0.0194 | 0.0217 | 0.0241 | 0.0266

CCO + C[C@H](N)C(=O)[O-].C[N+](C)(C)CCO
x2 = 0
Conditions | viscosity [mPa·s]
288.13 K | 1.15
289.34 K | 1.12
290.55 K | 1.1
291.74 K | 1.06
292.92 K | 1.03
294.1 K | 1.01
295.28 K | 0.98
296.45 K | 0.96
297.63 K | 0.93
298.8 K | 0.9
299.98 K | 0.88
301.16 K | 0.85
302.33 K | 0.82
303.51 K | 0.8
304.68 K | 0.77
305.86 K | 0.73
307.04 K | 0.71
308.21 K | 0.68
